ChEMBL document CHEMBL3112480, “γ-Alkylidene-γ-lactones and isobutylpyrrol-2(5H)-ones analogues to rubrolides as inhibitors of biofilm formation by gram-positive and gram-negative bacteria” (Bioorg Med Chem Lett, 2014)
In brackets after ≈: the same amount, converted by molar mass. One block for each molecule: values may come before it.

How the values were obtained:
[1] = tested on: Staphylococcus epidermidis; test: Antibacterial activity against Staphylococcus epidermidis ATCC 35547 assessed as effect on planktonic growth at 5.5 ug/ml after 20 hrs relative to control; type: functional
Streptococcus mutans [2] = test: Antibacterial activity against Streptococcus mutans ATCC 25175 assessed as effect on planktonic growth at 21.9 ug/ml after 20 hrs relative to control; type: functional
[3] = tested on: Staphylococcus epidermidis; test: Antibacterial activity against Staphylococcus epidermidis ATCC 35547 assessed as effect on planktonic growth at 87.5 ug/ml after 20 hrs relative to control; type: functional
[4] = tested on: Staphylococcus epidermidis; test: Antibacterial activity against Staphylococcus epidermidis ATCC 35547 assessed as effect on planktonic growth at 10.9 ug/ml after 20 hrs relative to control; type: functional
Staphylococcus aureus [5] = test: Antibacterial activity against Staphylococcus aureus ATCC 25923 assessed as effect on planktonic growth at 1.37 ug/ml after 20 hrs relative to control; type: functional
Staphylococcus aureus [6] = test: Antibacterial activity against Staphylococcus aureus ATCC 25923 assessed as effect on planktonic growth at 10.9 ug/ml after 20 hrs relative to control; type: functional
Streptococcus mutans [7] = test: Antibacterial activity against Streptococcus mutans ATCC 25175 assessed as effect on planktonic growth at 0.17 ug/ml after 20 hrs relative to control; type: functional
Pseudomonas aeruginosa [8] = test: Antibacterial activity against Pseudomonas aeruginosa ATCC 27853 assessed as effect on planktonic growth at 2.73 ug/ml after 20 hrs relative to control; type: functional
Staphylococcus aureus [9] = test: Antibacterial activity against Staphylococcus aureus ATCC 25923 assessed as effect on planktonic growth at 21.9 ug/ml after 20 hrs relative to control; type: functional
Pseudomonas aeruginosa [10] = test: Antibacterial activity against Pseudomonas aeruginosa ATCC 27853 assessed as effect on planktonic growth at 5.5 ug/ml after 20 hrs relative to control; type: functional
Streptococcus mutans [11] = test: Antibacterial activity against Streptococcus mutans ATCC 25175 assessed as effect on planktonic growth at 43.8 ug/ml after 20 hrs relative to control; type: functional
Pseudomonas aeruginosa [12] = test: Antibacterial activity against Pseudomonas aeruginosa ATCC 27853 assessed as effect on planktonic growth at 43.8 ug/ml after 20 hrs relative to control; type: functional
Pseudomonas aeruginosa [13] = test: Antibacterial activity against Pseudomonas aeruginosa ATCC 27853 assessed as effect on planktonic growth at 0.34 ug/ml after 20 hrs relative to control; type: functional
Staphylococcus aureus [14] = test: Antibacterial activity against Staphylococcus aureus ATCC 25923 assessed as effect on planktonic growth at 0.34 ug/ml after 20 hrs relative to control; type: functional
[15] = tested on: Staphylococcus epidermidis; test: Antibacterial activity against Staphylococcus epidermidis ATCC 35547 assessed as effect on planktonic growth at 2.73 ug/ml after 20 hrs relative to control; type: functional
[16] = tested on: Staphylococcus epidermidis; test: Antibacterial activity against Staphylococcus epidermidis ATCC 35547 assessed as effect on planktonic growth at 0.34 ug/ml after 20 hrs relative to control; type: functional
Pseudomonas aeruginosa [17] = test: Antibacterial activity against Pseudomonas aeruginosa ATCC 27853 assessed as inhibition of biofilm formation after 20 hrs by crystal-violet staining method; type: functional, organism-based
Pseudomonas aeruginosa [18] = test: Antibacterial activity against Pseudomonas aeruginosa ATCC 27853 assessed as effect on planktonic growth at 10.9 ug/ml after 20 hrs relative to control; type: functional
Streptococcus mutans [19] = test: Antibacterial activity against Streptococcus mutans ATCC 25175 assessed as effect on planktonic growth at 10.9 ug/ml after 20 hrs relative to control; type: functional
Staphylococcus aureus [20] = test: Antibacterial activity against Staphylococcus aureus ATCC 25923 assessed as effect on planktonic growth at 2.73 ug/ml after 20 hrs relative to control; type: functional
Staphylococcus aureus [21] = test: Antibacterial activity against Staphylococcus aureus ATCC 25923 assessed as effect on planktonic growth at 0.68 ug/ml after 20 hrs relative to control; type: functional
Staphylococcus aureus [22] = test: Antibacterial activity against Staphylococcus aureus ATCC 25923 assessed as effect on planktonic growth at 43.8 ug/ml after 20 hrs relative to control; type: functional
[23] = tested on: Staphylococcus epidermidis; test: Antibacterial activity against Staphylococcus epidermidis ATCC 35547 assessed as effect on planktonic growth at 1.37 ug/ml after 20 hrs relative to control; type: functional
[24] = tested on: Staphylococcus epidermidis; test: Antibacterial activity against Staphylococcus epidermidis ATCC 35547 assessed as inhibition of biofilm formation after 20 hrs by crystal-violet staining method; type: functional, organism-based; details: for IC50: ATCC 35547, 20 h
Pseudomonas aeruginosa [25] = test: Antibacterial activity against Pseudomonas aeruginosa ATCC 27853 assessed as effect on planktonic growth at 0.68 ug/ml after 20 hrs relative to control; type: functional
Streptococcus mutans [26] = test: Antibacterial activity against Streptococcus mutans ATCC 25175 assessed as effect on planktonic growth at 2.73 ug/ml after 20 hrs relative to control; type: functional
Pseudomonas aeruginosa [27] = test: Antibacterial activity against Pseudomonas aeruginosa ATCC 27853 assessed as effect on planktonic growth at 87.5 ug/ml after 20 hrs relative to control; type: functional
[28] = tested on: Staphylococcus epidermidis; test: Antibacterial activity against Staphylococcus epidermidis ATCC 35547 assessed as effect on planktonic growth at 0.68 ug/ml after 20 hrs relative to control; type: functional
Staphylococcus aureus [29] = test: Antibacterial activity against Staphylococcus aureus ATCC 25923 assessed as effect on planktonic growth at 87.5 ug/ml after 20 hrs relative to control; type: functional
Pseudomonas aeruginosa [30] = test: Antibacterial activity against Pseudomonas aeruginosa ATCC 27853 assessed as effect on planktonic growth at 1.37 ug/ml after 20 hrs relative to control; type: functional
Staphylococcus aureus [31] = test: Antibacterial activity against Staphylococcus aureus ATCC 25923 assessed as effect on planktonic growth at 0.17 ug/ml after 20 hrs relative to control; type: functional
Pseudomonas aeruginosa [32] = test: Antibacterial activity against Pseudomonas aeruginosa ATCC 27853 assessed as effect on planktonic growth at 21.9 ug/ml after 20 hrs relative to control; type: functional
[33] = tested on: Staphylococcus epidermidis; test: Antibacterial activity against Staphylococcus epidermidis ATCC 35547 assessed as effect on planktonic growth at 21.9 ug/ml after 20 hrs relative to control; type: functional
Streptococcus mutans [34] = test: Antibacterial activity against Streptococcus mutans ATCC 25175 assessed as effect on planktonic growth at 1.37 ug/ml after 20 hrs relative to control; type: functional
[35] = tested on: Staphylococcus epidermidis; test: Antibacterial activity against Staphylococcus epidermidis ATCC 35547 assessed as effect on planktonic growth at 43.8 ug/ml after 20 hrs relative to control; type: functional
Streptococcus mutans [36] = test: Antibacterial activity against Streptococcus mutans ATCC 25175 assessed as effect on planktonic growth at 5.5 ug/ml after 20 hrs relative to control; type: functional
[37] = tested on: Staphylococcus epidermidis; test: Antibacterial activity against Staphylococcus epidermidis ATCC 35547 assessed as effect on planktonic growth at 0.17 ug/ml after 20 hrs relative to control; type: functional
Streptococcus mutans [38] = test: Antibacterial activity against Streptococcus mutans ATCC 25175 assessed as effect on planktonic growth at 0.34 ug/ml after 20 hrs relative to control; type: functional
Staphylococcus aureus [39] = test: Antibacterial activity against Staphylococcus aureus ATCC 25923 assessed as effect on planktonic growth at 5.5 ug/ml after 20 hrs relative to control; type: functional
Pseudomonas aeruginosa [40] = test: Antibacterial activity against Pseudomonas aeruginosa ATCC 27853 assessed as effect on planktonic growth at 0.17 ug/ml after 20 hrs relative to control; type: functional
Streptococcus mutans [41] = test: Antibacterial activity against Streptococcus mutans ATCC 25175 assessed as effect on planktonic growth at 87.5 ug/ml after 20 hrs relative to control; type: functional
Streptococcus mutans [42] = test: Antibacterial activity against Streptococcus mutans ATCC 25175 assessed as effect on planktonic growth at 0.68 ug/ml after 20 hrs relative to control; type: functional

IC50 (Pseudomonas aeruginosa [17]; ATCC 27853, 20 h): > 87.5 µg/mL
IC50 [24]: 31.1 µg/mL (≈ 59.2 µM)
Compound: COc1ccc(Br)cc1C1=C(Br)C(=O)N(CC(C)C)/C1=C\c1cccc(Cl)c1
Activity [1]: 2.1%
Activity (Streptococcus mutans [2]): -10.1%
Activity [3]: 72.2%
Activity [4]: 23.2%
Activity (Staphylococcus aureus [5]): -7.2%
Activity (Staphylococcus aureus [6]): 2.4%
Activity (Streptococcus mutans [7]): -1.2%
Activity (Pseudomonas aeruginosa [8]): 0.1%
Activity (Staphylococcus aureus [9]): 5.1%
Activity (Pseudomonas aeruginosa [10]): -3.1%
Activity (Streptococcus mutans [11]): -15.3%
Activity (Pseudomonas aeruginosa [12]): -5.6%
Activity (Pseudomonas aeruginosa [13]): -4.4%
Activity (Staphylococcus aureus [14]): -1.1%
Activity [15]: 6.8%
Activity [16]: 6.4%
inhibition (Pseudomonas aeruginosa [17]): Dose-dependent effect
Activity (Pseudomonas aeruginosa [18]): -9%
Activity (Streptococcus mutans [19]): -19.1%
Activity (Staphylococcus aureus [20]): -2.7%
Activity (Staphylococcus aureus [21]): 1.1%
Activity (Staphylococcus aureus [22]): 16.3%
Activity [23]: 9.8%
inhibition [24]: Dose-dependent effect
Activity (Pseudomonas aeruginosa [25]): -0.3%
Activity (Streptococcus mutans [26]): -6.2%
Activity (Pseudomonas aeruginosa [27]): 14.6%
Activity [28]: 5.6%
Activity (Staphylococcus aureus [29]): 18.4%
Activity (Pseudomonas aeruginosa [30]): 3%
Activity (Staphylococcus aureus [31]): -3.5%
Activity (Pseudomonas aeruginosa [32]): -4.8%
Activity [33]: 57.9%
Activity (Streptococcus mutans [34]): 2.7%
Activity [35]: 84.7%
Activity (Streptococcus mutans [36]): 1.5%
Activity [37]: 2.2%
Activity (Streptococcus mutans [38]): 6.7%
Activity (Staphylococcus aureus [39]): 0.5%
Activity (Pseudomonas aeruginosa [40]): 0.6%
Activity (Streptococcus mutans [41]): -4%
Activity (Streptococcus mutans [42]): 11.4%

IC50 [24]: > 87.5 µg/mL
Compound: COc1ccc(C)cc1C1=C(Br)C(=O)N(CC(C)C)C1(O)Cc1cccc(Cl)c1 (configuration not stated)
Activity [1]: 12%
Activity (Streptococcus mutans [2]): -12.5%
Activity [3]: -7.8%
Activity [4]: -17.2%
Activity (Staphylococcus aureus [5]): 9.7%
Activity (Staphylococcus aureus [6]): 4.3%
Activity (Streptococcus mutans [7]): 3%
Activity (Pseudomonas aeruginosa [8]): -7%
Activity (Staphylococcus aureus [9]): 3.4%
Activity (Pseudomonas aeruginosa [10]): -8.6%
Activity (Streptococcus mutans [11]): -21%
Activity (Pseudomonas aeruginosa [12]): -10.6%
Activity (Pseudomonas aeruginosa [13]): -1.3%
Activity (Staphylococcus aureus [14]): 11.4%
Activity [15]: 1.9%
Activity [16]: 2.4%
inhibition (Pseudomonas aeruginosa [17]): Dose-dependent effect
Activity (Pseudomonas aeruginosa [18]): -9.6%
Activity (Streptococcus mutans [19]): -7.6%
Activity (Staphylococcus aureus [20]): 12.8%
Activity (Staphylococcus aureus [21]): 10.8%
Activity (Staphylococcus aureus [22]): -5%
Activity [23]: 0.9%
inhibition [24]: Dose-dependent effect
Activity (Pseudomonas aeruginosa [25]): -2.6%
Activity (Streptococcus mutans [26]): -2.9%
Activity (Pseudomonas aeruginosa [27]): -11.6%
Activity [28]: 1.2%
Activity (Staphylococcus aureus [29]): -12.1%
Activity (Pseudomonas aeruginosa [30]): -3.4%
Activity (Staphylococcus aureus [31]): 6.7%
Activity (Pseudomonas aeruginosa [32]): -7.9%
Activity [33]: -7.3%
Activity (Streptococcus mutans [34]): -4.8%
Activity [35]: -28.5%
Activity (Streptococcus mutans [36]): -11%
Activity [37]: 3.5%
Activity (Streptococcus mutans [38]): 2.4%
Activity (Staphylococcus aureus [39]): 5.4%
Activity (Pseudomonas aeruginosa [40]): -1.6%
Activity (Streptococcus mutans [41]): -31.2%
Activity (Streptococcus mutans [42]): 1.1%
